Assay results published in ChEMBL document CHEMBL1144962, “A new sterol sulfate, Sch 572423, from a marine sponge, Topsentia sp” (Bioorg Med Chem Lett, 2003).

Molecular target: P2Y purinoceptor 12 (Homo sapiens, UniProt Q9H244)
Test: Binding affinity against Purinergic receptor P2Y12 using [3H]2-methylthio-ADP as radioligand
Type: tissue-based

Sequence of P2Y purinoceptor 12 (Q9H244 whole entry): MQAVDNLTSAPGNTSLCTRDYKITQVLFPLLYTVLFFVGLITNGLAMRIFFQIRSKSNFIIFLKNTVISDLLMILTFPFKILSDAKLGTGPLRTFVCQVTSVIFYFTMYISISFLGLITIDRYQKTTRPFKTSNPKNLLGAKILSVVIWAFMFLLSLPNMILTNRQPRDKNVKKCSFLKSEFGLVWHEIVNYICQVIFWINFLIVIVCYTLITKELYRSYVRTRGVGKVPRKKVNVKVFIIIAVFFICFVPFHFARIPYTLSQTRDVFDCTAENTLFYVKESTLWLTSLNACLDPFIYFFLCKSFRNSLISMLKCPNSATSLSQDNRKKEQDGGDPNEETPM

IC50 | Compound
2200 nM | CC(C(O)C(O)[C@@H](C)C1CC[C@H]2[C@@H]3CC[C@H]4C[C@H](OS(=O)(=O)O)[C@H](OS(=O)(=O)O)C[C@]4(C)[C@@]3(C)CC[C@]12C)C(C)(C)C (some centres not stated)
480 nM | CC(CC[C@@H](C)C1CC[C@H]2[C@@H]3C[C@H](OS(=O)(=O)O)[C@H]4C[C@H](OS(=O)(=O)O)[C@H](OS(=O)(=O)O)C[C@]4(C)[C@@]3(C)CC[C@]12C)C(C)(C)C (some centres not stated)
